Test in all cases: DTP human tumour cell line panel, 48 h
The subject of experiment [1] is HT29 colon.
In experiment [2] the test system is K-562 leukemia.
In experiment [3] the test system is KM12 colon.
Experiment [4] deals with NCI/ADR-RES ovarian.
The test system of experiment [5] is OVCAR-4 ovarian.
In experiment [6] the test system is OVCAR-5 ovarian.
The test system of experiment [7] is RXF 393 renal.
Experiment [8] has as its system SF-295 CNS.
The subject of experiment [9] is SK-MEL-28 melanoma.
The subject of experiment [10] is SN12C renal.

Three compounds from PubChem BioAssay (NCI) can be followed below.

Molecules are shown by their SMILES.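 Test compounds were applied to cells in 96-well plates for 48 hours at 5 doses. GI50 is the concentration that inhibits growth by half. TGI: concentration producing complete growth inhibition.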

In the case of `CN1CCN(Cn2nc(-c3cc(F)c(Cl)cc3Cl)oc2=S)CC1`, the GI50 (in general, the concentration giving 50% growth inhibition) in [1] is 24.5 µM; in [2] it was 41.4 µM; in experiment [3], 42.7 µM; in experiment [4] it was 83.6 µM; in [5] it was 30.9 µM; in [6], > 100 µM. Moreover, the GI50 was 32.5 µM in experiment [7], 42.4 µM in experiment [8], 28.6 µM in experiment [9] and 28.3 µM in [10]. Further, the TGI (in general, the concentration giving total growth inhibition) is 54.7 µM in experiment [1]; > 100 µM in [2]; > 100 µM in [3]; > 100 µM in experiment [4]; > 100 µM in experiment [5]; > 100 µM in [6]. In addition, the TGI in experiment [7] is 93.8 µM; in experiment [8], > 100 µM; in [9] it was > 100 µM; in [10], > 100 µM.
With `O=c1[nH]c(-c2ccc(Cl)cc2)cc2ccsc12`, the total growth inhibition concentration (TGI) in [1], in [2], in experiment [3], in [4], in experiment [5] and in experiment [6] was > 100 µM each time. For the same compound, the total growth inhibition concentration (TGI) is > 100 µM in experiment [7], 23.4 µM in experiment [8], > 100 µM in experiment [9] and > 100 µM in experiment [10].
For the compound `COc1cccc2c1C(=O)c1c(O)c3c(c(O)c1C2=O)CC(O)(C(C)=O)CC3O` (stereo not given), the concentration for total growth inhibition (TGI) in experiment [1] worked out at 36.4 µM; in [2], 39.3 µM; in experiment [3], 38.5 µM; in experiment [4], 22.4 µM; in experiment [5], 19.6 µM; in experiment [6], 24.1 µM. The TGI in experiment [7] turned out to be 18.5 µM; in experiment [8], 19.5 µM; in [9], 44.3 µM; in experiment [10], 29.4 µM.
